Measured values taken from US6995148B2, “Adenosine cyclic ketals: novel adenosine analogues for pharmacotherapy” (University of Pittsburgh, priority 2001, dated 2006).

Assays:
A2A receptors = conditions: cited from earlier work
[1] = tested on: patients with acute anterior myocardial infarction; conditions: three-hour intravenous infusion; cited from earlier work
anesthetized rat = assay: Hemodynamic effects (MABP and heart rate) of intravenous bolus in anesthetized rat; format: in vivo; conditions: bolus injection of 0.2 mg/kg
Description: Preliminary experiments were conducted to evaluate the hemodynamic effects of nonamethonium ACK. Adult male Sprague-Dawley rats utilized in these studies were purchased from Charles River Laboratories (Wilmington, Mass.) and maintained in the University of Pittsburgh Animal Facility. Rats were provided free access to Prolab Isopro RMH 3000 rodent diet (PMI Nutritional Intl., Richmond, Ind.) a nd tap water. The rats weighed approximately 300 grams at the time of study.
Rats were anesthetized with Inactin (100 mg/kg, intraperitoneally or i.p.) and placed on a Deltaphase Isothermal Pad (Braintree Scientific, Inc.; Braintree, Mass.). Body temperature was monitored with a digital rectal probe thermometer (Physioltemp Instruments, Inc.; Clifton, N.J.) and maintained at 37° C. by adjusting a heat lamp above the animal. The trachea was cannulated with polyethylene (PE)- 240 to maintain airway patency, a PE-50 catheter was inserted into the left jugular vein and an intravenous infusion of 0.9% saline was initiated at 80 μl/min. A left carotid artery catheter (PE-50) was inserted and was connected to a digital blood pressure analyzer (Micro-Med; Louisville, Ky.) for continuous measurement of mean arterial blood pressure (MABP) and heart rate. The digital blood pressure analyzer was set to time-average MABP and heart rate at one-minute (slow speed) or two-second (high speed) intervals.
After a 30 minute post-operation rest period, the rats received bolus injections of either adenosine or nonamethonium ACK. Some rats were pretreated with a bolus of 1,3-dipropyl-p-sulfophenylxanthine (DPSPX, a well-characterized adenosine receptor antagonist) followed by a constant rate infusion of DPSPX at 0.15 mg/80 μl/min. It has previously been shown that this dosing regimen with DPSPX effectively blocks adenosine receptors in the rat in vivo.

SMILES	affinity for A2A receptors (A2A receptors)	reduction of infarct size [1] [%]	time to recovery of MABP (anesthetized rat)	time to recovery of heart rate (anesthetized rat)	reduction of MABP (anesthetized rat; FIG. 2A) [mm Hg]	reduction of heart rate (anesthetized rat; FIG. 2B) [beats per minute]
CCNC(=O)[C@H]1O[C@@H](n2cnc3c(N)nc(NCCc4ccc(CCC(=O)O)cc4)nc32)[C@H](O)[C@@H]1O [CGS 21680, 2-[4-[(2-carboxyethyl)phenyl]ethylamino]-5′-N-ethylcarboxamidoadenosine]	high affinity					
Nc1ncnc2c1ncn2[C@@H]1O[C@H](CO)[C@@H](O)[C@H]1O [adenosine]		66	approximately 500 seconds	approximately 100 seconds	76	158
